Where “and” joins values, the source holds several entries; their conditions need not be identical. Identical values can stand only once.
These compounds were tested against T1, Adenosine receptor A3 (Homo sapiens, UniProt P0DMS8).
T1 sequence (P0DMS8 whole entry): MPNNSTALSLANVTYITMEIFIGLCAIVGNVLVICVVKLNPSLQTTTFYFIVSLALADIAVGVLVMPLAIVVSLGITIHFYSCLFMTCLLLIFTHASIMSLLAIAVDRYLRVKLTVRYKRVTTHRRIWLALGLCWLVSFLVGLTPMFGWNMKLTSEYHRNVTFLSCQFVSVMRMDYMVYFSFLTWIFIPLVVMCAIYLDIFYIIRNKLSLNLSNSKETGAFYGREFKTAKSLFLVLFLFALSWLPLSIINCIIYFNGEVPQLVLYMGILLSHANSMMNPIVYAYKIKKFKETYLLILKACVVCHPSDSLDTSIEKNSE
Work on Nc1nc2ccc(Cl)cc2c2nc(-c3ccco3)nn12 yielded a Ki of 122 nM. For Cn1cc2c(nc(NC(=O)Nc3ccccc3)n3nc(-c4ccco4)nc23)n1, the Ki was 1.7 nM and 1.5 nM. With CCCn1cc2c(nc(NC(=O)Nc3ccccc3)n3nc(-c4ccco4)nc23)n1 [MRE 3055F20] the Ki was 1 nM and 0.53 nM. In the case of CCCCC#Cc1nc(N)c2ncn([C@@H]3O[C@H](C(=O)NCC)[C@H](O)C3O)c2n1 (stereo partly drawn) [(2S,3R,5R)-5-[6-amino-2-(hex-1-yn-1-yl)-9H-purin-9-yl]-N-ethyl-3,4-dihydroxyoxolane-2-carboxamide], the Ki is reported as 750 nM and 740 nM. Compound CCn1cc2c(nc(NC(=O)Nc3ccccc3)n3nc(-c4ccco4)nc23)n1 has a Ki of 1.2 nM. In the case of CCCCn1cc2c(nc(NC(=O)Nc3ccccc3)n3nc(-c4ccco4)nc23)n1, the Ki is reported as 1.4 nM and 0.93 nM. Nc1nc2c(cnn2CCc2ccccc2)c2nc(-c3ccco3)nn12 gave a Ki greater than 10000 nM.

Source: BindingDB's records for doi:10.1124/mol.61.2.415 (University of Ferrara, 2002)
